Assay [1] deals with Escherichia coli. Put plainly: Antibacterial activity against Escherichia coli LptD4213 assessed as growth inhibition incubated for 20 hrs by CLSI based broth microdilution method. The format is functional. For orientation: In broth dilution the organism is exposed to a series of concentrations in liquid medium.
For assay [2], the system named is Staphylococcus aureus. Kind of assay: Antibacterial activity against methicillin-resistant Staphylococcus aureus TCH1516 assessed as growth inhibition incubated for 20 hrs by CLSI based broth microdilution method. Format: functional.

These results are taken from ChEMBL document CHEMBL5136988, “Chlororesistoflavins A and B, Chlorinated Benzopyrene Antibiotics Produced by the Marine-Derived Actinomycete Streptomyces sp. Strain EG32” (2022).

≈ marks a conversion by molar mass, not a printed value.

`Cc1cc(O)c2c3c1C(=O)C=C1C(C)(C)C(=O)c4c(O)cc(O)c(c4[C@@]13O)C2=O`: the minimal inhibitory concentration (MIC) in assay [1] was 64 µg/mL (≈ 163 µM); in assay [2], 0.25 µg/mL (≈ 0.637 µM).

For the molecule `Cc1cc(O)c2c3c1C(=O)C=C1C(C)(C)C(=O)c4c(O)c(Cl)c(O)c(c4[C@@]13O)C2=O`, the MIC in assay [1] is 128 µg/mL (≈ 300 µM); in assay [2] it was 2 µg/mL (≈ 4.69 µM).

As for `Cc1cc(O)c2c3c1C(=O)C(Cl)=C1C(C)(C)C(=O)c4c(O)cc(O)c(c4[C@@]13O)C2=O`, the MIC in assay [1] was 32 µg/mL (≈ 75 µM); in assay [2] it was 0.25 µg/mL (≈ 0.586 µM).

Turning to `Cc1cc(O)c2c3c4c(cc(O)c13)C(C)(C)C(=O)c1c(O)cc(O)c(c1-4)C2=O` [HELIOMYCIN], the values for the minimum inhibitory concentration (MIC) in assay [1] and in assay [2] were 32 µg/mL (≈ 85 µM) and 0.125 µg/mL (≈ 0.332 µM), respectively.

What is called MIC is the least concentration at which growth counts as inhibited.
